Reference: patent publication US4064228A (priority 1975, dated 1977)
Read-outs that look alike come from different tables or passages of the source.

Columns and labels:
[1] = test system: antibody IgG raised to azomorphine conjugate (morphine-specific); assay type: binding
Experimental: The dried sorbent (300 mg) was washed with 50 ml. saline (0.9%) five times and suspended in a final volume of 15 ml, to which 5 ml of crude antiserum raised to the azomorphine conjugate of Example 5, supra was added. […] The matrix recovered by centrifugation was used as a slurry. 10 ml, […] HCL was added to sorbent. After centrifugation for 1 minute the filtered supernatant was neutralized at once with 1 M dibasic sodium phosphate. The acid base cycle was repeated three times. The recovered antibody solution was dialyzed against 12 liters of 0.1 M phosphate buffer, pH 7.4. […] The specificities of recovered antibody IgG were next determined by immune fluorescence techniques.
Quenching of antibody fluorescence was performed using antibody IgG from non pooled samples. […] Native alkaloid was added in increasing amounts to each tube containing azomorphine and IgG in a 10:1 hapten: antibody ratio (× 10^-10 moles/ml). The alkaloid was added to IgG simultaneously with or in advance of azomorphine. All dilutions were done in triplicate. Incubations including controls were carried out for 10 minutes to 12 hours at 23° C.

[2] = test system: antibody raised to azomorphine conjugate (crude antisera); assay type: binding; conditions: morphine taken as 100%; for % Cross-reactivity: M50/A50 (amounts for 50% inhibition of labeled hapten binding), Abraham method; for Cross-reactivity of morphine-specific antibody (general statement): under the conditions just described / similarly measured
Experimental: After 2 hours, an equal volume of a neutral, saturated ammonium sulfate solution was added. The resulting precipitates, sedimented by centrifugation at 3000 rpm for 15 minutes at 4° C, were washed once in 50% saturated ammonium sulphate solution. Each precipitate was dissolved in 0.2 ml NCS solubilizer (Amersham-Searle Corp.) and transferred to a scintillation counting vial containing 10 ml. Aquasol dispersant (New England Nuclear Corp.) and counted in a Nuclear Chicago Liquid Scintillation Spectrometer.
Cross-reactivity was computed by the method of Abraham, J. Clin. Endocrin. & Metab.

[3] = test system: antibody to 3-carboxymethyl opium alkaloid-protein antigen (Spector); conditions: Spector U.S. Pat. Nos. 3,709,868 and 3,822,245; cited from earlier work
[4] = test system: antibody to 3-carboxymethyl opium alkaloid-protein antigen (Leute); conditions: Leute et al., J.A.M.A. 1972; Nature (New Biology) 1972; cited from earlier work
[5] = test system: opium alkaloid antibody (prior art, raised with morphine); conditions: summary of all prior art known to applicant; cited from earlier work
antibodies to serotonin = conditions: reported by Spector et al., Science 179:1340 (1973); cited from earlier work
[6] = even in vast hapten excess, azomorphine:IgG 10:1

| Compound | Inhibition of fluorescence quenching [1, 6] | % Cross-reactivity [2] [%] | Cross-reactivity of morphine-specific antibody (general statement) [2] | other results |
| --- | --- | --- | --- | --- |
| COc1ccc2c3c1O[C@H]1[C@@H](O)C=C[C@H]4[C@@H](C2)N(C)CC[C@@]341 [Codeine, codeine] | slight | 11 | ≤ 20% | Cross-reactivity with codeine [3]: very high cross-reactivity; Cross-reactivity with codeine [4]: high cross-reactivity; Cross-reactivity with codeine [5]: extremely high cross-reactivity |
| COc1ccc2c(c1)[C@@]13CCCC[C@H]1[C@@H](C2)N(C)CC3 [Dextromethorphan, 3-methoxy N-methyl morphinan] | slight | 0.01 | ≤ 0.1% | – |
| CCOc1ccc2c3c1O[C@H]1[C@@H](O)C=C[C@H]4[C@@H](C2)N(C)CC[C@@]341 [Ethylmorphine] | – | 16 | – | – |
| CN1CC[C@]23c4c5cc(N=Nc6ccc(C(=O)O)cc6)c(O)c4O[C@H]2[C@@H](O)C=C[C@H]3[C@H]1C5 [Example 1, 2-(4'-carboxyphenylazo) morphine] | – | – | about 100% | Association constants determined by the Sips equation applied to fluorescence data ([1]; antibody IgG from non pooled samples): 1e+07 to 3e+08 L/mol; Quenching maxima (antibody fluorescence) ([1]; antibody IgG from non pooled samples, azomorphine as quencher, 23° C): 56-77% |
| CCC(=O)C(CC(C)N(C)C)(c1ccccc1)c1ccccc1 (stereo not shown) [Methadone] | – | 0.01 | ≤ 0.1% | – |
| CC(=O)O[C@H]1C=C[C@H]2[C@H]3Cc4ccc(O)c5c4[C@@]2(CCN3C)[C@H]1O5 [Monoacetylmorphine] | slight | 7 | not more than 10% | – |
| CN1CC[C@]23c4c5ccc(O)c4O[C@H]2[C@@H](O)C=C[C@H]3[C@H]1C5 [Morphine, morphine] | – | 100 | – | Inhibition of fluorescence quenching ([1]; morphine 40 × 10^-10 moles/ml, 1 × 10^-10 moles/ml antibody, 10 × 10^-10 moles/ml azomorphine): completely inhibited |
| C=CCN1CC[C@]23c4c5ccc(O)c4O[C@H]2[C@@H](O)C=C[C@H]3[C@H]1C5 [N-allylnormorphine] | – | 2 | – | – |
| CC(=O)Oc1ccc2c3c1O[C@H]1[C@@H](OC(C)=O)C=C[C@H]4[C@@H](C2)N(C)CC[C@@]341 [heroin, Diacetylmorphine] | slight | 7 | not more than 10% | – |
| COc1ccc2[nH]cc(CCN)c2c1 [methoxyserotonin, 5-methoxytryptamine] | – | – | – | Cross-reactivity with serotonin antibodies (antibodies to serotonin): substantially complete cross-reactivity |
